This is an account of results in US20190216779A1, “USE OF NEUROKININ-1 ANTAGONISTS TO TREAT A VARIETY OF PRURITIC CONDITIONS” (MENLO THERAPEUTICS INC., priority 2016, published 2019).

Each structure is given as a SMILES string.

For series [1] the following is noted: cited from earlier work.
The nature of series [2]: In vitro skin permeation of serlopitant in topical formulations, Franz diffusion cell. In kind it is in vitro ADME. Particulars: topical formulations B and C, human skin, 37° C., LC-MS/MS. As for the experimental part: In vitro skin permeation of serlopitant in topical formulations A-D was evaluated using a Franz diffusion cell. FIG. 1 illustrates a Franz diffusion cell. A Franz diffusion cell having a circular permeation area of 4.15 cm^2 and a receptor chamber volume of 19 mL was set up with a thermo-regulated outer water jacket to maintain the temperature at 37° C. The receptor chamber was filled with 19 mL 1×PBS (pH 7.5) containing 10% ethanol and 1% Tween® 80.
Human skin was pre-treated to remove all subcutaneous fat and was cleaned with 70% ethanol before use. The skin was visually inspected to ensure that it was free of any surface irregularity or small holes and was equally divided into four pieces. The skin was then mounted onto the receptor chamber with the stratum corneum side facing up. […]
All samples were processed by solid-phase extraction (SPE) before LC-MS/MS analysis. […] Serlopitant concentrations in samples resulting from formulations A-D were determined by comparison to the standard. Serlopitant was not detected in samples resulting from topical formulations A and D, as expected. […] After an initial lag, serlopitant was detected by LC-MS/MS in the receptor chamber at 6 hours.
The amount of serlopitant retained in the skin was determined at the end of the experiment. […] Extracted serlopitant was quantified by LC-MS/MS. […]

The test system of series [3] is subjects with chronic pruritus. As to the kind of experiment: Phase II randomized, double-blind, placebo-controlled clinical study of serlopitant in chronic pruritus. In kind it is in vivo, human. The settings on record: for 4-point responder rate (proportion of subjects achieving ≥4-point improvement on a 10-point scale) in the average VAS itch score: Week 6, placebo 26%; for relief of itch in the NRS score compared to placebo (secondary efficacy endpoint; data not shown) / relief of itch in the VAS score compared to placebo (primary efficacy endpoint): Weeks 4, 5 and 6. The method, then:
A well-controlled human clinical trial assessing the efficacy of serlopitant in the treatment of chronic pruritus was approved by an Institutional Review Board and was conducted in accordance with the International Conference on Harmonisation (ICH) Guidelines for Good Clinical Practices, the U.S. Code of Federal Regulations, the Health Insurance Portability and Accountability Act (HIPAA), and any local regulatory requirements. The study was a Phase II randomized, double-blind, parallel-group, placebo-controlled, multicenter trial designed to evaluate the efficacy and safety of serlopitant versus placebo in subjects with chronic pruritus.
Subjects were randomized to receive a 0.25 mg, 1 mg or 5 mg tablet of serlopitant or a matching placebo tablet. Subjects took one tablet of serlopitant or placebo once daily by mouth for a total of 6 weeks following a loading dose of 3 tablets on the first day of treatment. The maximum study duration for each subject was about 12 weeks and included a screening period of up to 2 weeks, a treatment period of 6 weeks, and a follow-up period of 4 weeks. The screening period was extended up to 44 days if a washout period from any prohibited medications was required.

Series [4] can be described thus: Solubility test of serlopitant in Franz cell receptor solution. In kind it is physicochemical.
For series [5], the system named is subjects with chronic pruritus and prurigo nodularis. As to the kind of experiment: Phase II randomized, double-blind, placebo-controlled clinical study of serlopitant in chronic pruritus due to prurigo nodularis. It is filed as in vivo, human. The settings on record: for Mean difference Serlopitant − Placebo (SE) in change of average itch VAS score from baseline by repeated measures analysis: 5 mg once daily oral, 10 cm VAS. The method, then:
A well-controlled human clinical trial assessing the efficacy of serlopitant in the treatment of pruritus associated with prurigo nodularis (PN) was approved by an Institutional Review Board and was conducted in accordance with the ICH Guidelines for Good Clinical Practices. German regulations on recordkeeping of subject information, and any local regulatory requirements. The study was a Phase II randomized, double-blind, placebo-controlled, multicenter trial designed to evaluate the efficacy and safety of serlopitant versus placebo in subjects with PN. […] The subjects had chronic pruritus due to PN.
Subjects were randomized to receive either a 5-mg tablet of serlopitant or a matching placebo tablet. Subjects took a tablet of serlopitant or placebo once daily by mouth for 8 weeks following a loading dose of 3 tablets on the first day of treatment. The maximum study duration for each subject was about 14 weeks and included a screening period of up to 4 weeks, a treatment period of 8 weeks, and a follow-up period of 2 weeks.
At Baseline, the average itch VAS score (average itch over the past 24 hours) for the serlopitant group and the placebo group was 7.88 and 7.92, respectively. […] Furthermore, a once-daily 5 mg dose of serlopitant led to a 4-point responder rate (the proportion of subjects achieving ≥4-point improvement on a 10-point scale) of 54% with respect to the average itch VAS score at Week 8 compared to 25% for placebo.

The mark [6] stands for this setting: all three doses (0.25 mg, 1 mg, 5 mg once daily, 6 weeks).

Turning to `C[C@@H](O[C@H]1CC[C@@H]2CN(C3=CC(=O)CC3)C[C@H]2[C@@H]1c1ccc(F)cc1)c1cc(C(F)(F)F)cc(C(F)(F)F)c1` [Form I], the “thermodynamic stability of polymorph” value in series [1] (Form I compared with Form II) is “thermodynamically more stable below 70 °C”. In addition, the hygroscopicity entry in series [1] (all tested relative humidity conditions) was “non-hygroscopic”.

Regarding `C[C@@H](O[C@H]1CC[C@@H]2CN(C3=CC(=O)CC3)C[C@H]2[C@@H]1c1ccc(F)cc1)c1cc(C(F)(F)F)cc(C(F)(F)F)c1` [serlopitant, 3-[(3aR,4R,5S,7aS)-5-[(1R)-1-[3,5-bis(trifluoromethyl)phenyl]ethoxy]-4-(4-fluorophenyl)octahydro-2H-isoindol-2-yl]cyclopent-2-en-1-one], the “time at which serlopitant was detected in the receptor chamber after an initial lag” value in series [2] came out at 6 h. In addition, the “Least squares mean % change from baseline in average VAS itch score” value (“Least squares mean % change” for short) in series [3] (0.25 mg once daily oral, Week 1, n = 64) is on record as −9.1 ± 3.9%; in series [3] (0.25 mg once daily oral, Week 2, n = 64) it was −14.9 ± 4.0%; in series [3] (0.25 mg once daily oral, Week 3, n = 64), −21.4 ± 4.0%; in series [3] (0.25 mg once daily oral, Week 4, n = 64) it was −29.0 ± 4.0%; in series [3] (0.25 mg once daily oral, Week 5, n = 64), −32.4 ± 4.0%; in series [3] (0.25 mg once daily oral, Week 6, n = 64) it was −34.1 ± 4.1%. In addition, the “Least squares mean % change” value in series [3] (1 mg once daily oral, Week 1, n = 65) is −11.8 ± 3.9%; in series [3] (1 mg once daily oral, Week 2, n = 65), −22.0 ± 4.0%; in series [3] (1 mg once daily oral, Week 3, n = 65) it was −30.2 ± 4.0%; in series [3] (1 mg once daily oral, Week 4, n = 65, p < 0.05 vs placebo), −33.1 ± 4.0 %; in series [3] (1 mg once daily oral, Week 5, n = 65, p < 0.05 vs placebo), −38.0 ± 4.1 %; in series [3] (1 mg once daily oral, Week 6, n = 65, p < 0.05 vs placebo), −41.4 ± 4.0 %. Moreover, the “Least squares mean % change” value in series [3] (5 mg once daily oral, Week 1, n = 64) was −12.0 ± 3.9%; in series [3] (5 mg once daily oral, Week 2, n = 64) it was −20.3 ± 4.0%; in series [3] (5 mg once daily oral, Week 3, n = 64), −28.8 ± 4.0%; in series [3] (5 mg once daily oral, Week 4, n = 64, p < 0.05 vs placebo), −34.2 ± 4.0 %; in series [3] (5 mg once daily oral, Week 5, n = 64, p < 0.05 vs placebo) it was −37.3 ± 4.0 %; in series [3] (5 mg once daily oral, Week 6, n = 64, p < 0.05 vs placebo), −42.5 ± 4.1 %. Moreover, the “intensity of all adverse events” value in series [3] (setting [6]) was “mild or moderate intensity”. Moreover, the “most common treatment-emergent adverse events” value in series [3] (setting [6]) is “diarrhea, somnolence and headache in the low single-digit percent”. In addition, the “tolerability and safety profile” value in series [3] (setting [6]) is “well tolerated and exhibited an excellent safety profile”. Also, the “4-point responder rate (proportion of subjects achieving ≥4-point improvement on a 10-point scale) in the average VAS itch score” value in series [3] (once-daily 1 mg dose) is 42%; in series [3] (once-daily 5 mg dose), 53%. Also, the “relief of itch in the NRS score compared to placebo (secondary efficacy endpoint; data not shown)” value in series [3] (once-daily 1 mg dose) and in series [3] (once-daily 5 mg dose) was “statistically significant improvement in relief of itch” each time. In addition, the “relief of itch in the VAS score compared to placebo (primary efficacy endpoint)” value in series [3] (once-daily 1 mg dose) and in series [3] (once-daily 5 mg dose) was “statistically significant improvement in relief of itch” throughout. The “solubility in receptor solution” value in series [4] (1×PBS (pH 7.5) containing 10% ethanol and 1% Tween 80, 1 hour of incubation at 37° C.) was “remained soluble at concentrations of 0.5, 5 and 50 ug/mL”. For the same compound, the “change of solubility if Tween 80 was not used” value in series [4] (receptor solution without Tween 80) is on record as “decreased significantly”. Moreover, the “change of solubility if ethanol was not used” value in series [4] (receptor solution without ethanol) is on record as “decreased slightly”. Further, the “Mean difference Serlopitant − Placebo (SE) in change of average itch VAS score from baseline by repeated measures analysis” value in series [5] (Week 2, 95% CI (−1.5, −0.2), p 0.0111) is listed as −0.9 (0.34); in series [5] (Week 4, 95% CI (−1.8, −0.1), p 0.0248), −1.0 (0.43); in series [5] (Week 8, 95% CI (−2.6, −0.7), p 0.0005) it was −1.7 (0.47). Moreover, the “adverse event diarrhea (most common adverse events)” value in series [5] (5 mg once daily, 8 weeks) came out at 11%. Further, the “adverse event nasopharyngitis (most common adverse events)” value in series [5] (5 mg once daily, 8 weeks) came to 17%. Further, in series [5] (5 mg once daily, 8 weeks), the “intensity of treatment-emergent adverse events” value is “generally mild or moderate”. Also, in series [5] (5 mg once daily, 8 weeks), the tolerability and safety entry is “well tolerated and safe”. The “improvement in pruritus on the IGA vs placebo” value in series [5] (once-daily 5 mg dose) is “greater improvement”. For the same compound, the “4-point responder rate with respect to the average itch VAS score” value in series [5] (once-daily 5 mg dose, Week 8, placebo 25%) worked out at 54%. Further, the “4-point responder rate with respect to the worst itch NRS score” value in series [5] (once-daily 5 mg dose, Week 8, placebo 26%) was 47%. Further, the “proportion of subjects reporting “no/mild pruritus” on the VRS” value in series [5] (once-daily 5 mg dose, Week 8, placebo 28.9%) came to 54.4%. Moreover, the “proportion of subjects reporting improvement in pruritus on the PGA” value in series [5] (once-daily 5 mg dose, Week 8, placebo 54.3%) was found to be 82.5%. Also, in series [5] (once-daily 5 mg dose, Weeks 2, 4, and 8), the “decrease in the average itch VAS score from Baseline compared to placebo” value is “statistically significant decrease”. For the same compound, the “improvement in the worst itch VAS score from Baseline to Week 8 vs placebo” value in series [5] (once-daily 5 mg dose, p=0.0024) is given as “statistically significantly, greater improvement”. Besides, the “decrease in the average itch NRS score from Baseline to Week 8 vs placebo” value in series [5] (once-daily 5 mg dose, p=0.0069) was “statistically significantly greater decrease”.
